Where two headings read alike, the source gives them in different places.

Experiment [1] relates to HLA-DRα class II promoter. Nature of the experiment: Transient transfection CAT assay, HLA-DRα class II promoter chimeras in FRTL-5 cells. It is filed as cell-based. An excerpt: Construction of the HLA-DR promoter constructs has also been described as have been their characteristics (Reimold A M, et al., ibid (1993)). Additional CAT constructs were constructed by PCR, using the HLA-DRα-CAT chimera containing −176 to +45 of 5′-flanking region as template and various primers (Montani V. et al., ibid (1998a,b)). For example, a plasmid containing −38 to +45 bp of the 5′-flanking region of HLA-DRα was constructed with the following primers: a 5′ primer with a 5′ Sph I restriction site, 5′-[…]-3′ and a 3′ primer, 5′-[…]-3′, with an Xba I restriction site (Montani V., et al., ibid (1998a,b)). The PCR products were purified by phenol-chloroform extraction, digested with Xba I and Sph I, purified from a 2% agarose gel with Jet Sorb (Genomed, Frederick, Md.), dephosphorylated with calf intestinal alkaline phosphatase (New England Biolabs, Beverly, Mass.), and religated (DNA ligation kit, Takara Biochemical, Inc., Berkeley, Calif.) into the pCAT-Basic Vector (Promega, Madison, Wis.) at the Sph I and Xba I sites as described (Reimold AM, et al., ibid (1993); Montani V., et al., ibid (1998a,b)).
To measure the promoter activity of MHC class II promoter constructs, transient transfections in FRTL-5 cells were performed, using one of the following procedures (Montani V., et al., ibid (1998a, b)). In one, FRTL-5 cells were cultivated in 6H medium to approximately 80% confluency, harvested, washed, and resuspended (1.5×10^7 cells/ml) in 0.85 ml electroporation buffer (272 mM sucrose, 7 mM sodium phosphate buffer pH 7.4, and 1 mM MgCl2). Plasmid DNA was added, 20 μg of the CAT chimera together with 2 μg pRSV-luciferase which is used to measure the efficiency of transfection. Cells were pulsed (330 V; capacitance 25 μfarad), plated (6×10^6 cells/10 cm dish), and cultured in 6H medium plus 5% calf serum supplemented or not with γ-IFN. At the times noted, cells were harvested for CAT and luciferase assays. The second procedure differed as follows. FRTL-5 cells were grown to 80% confluency in 6H medium, then maintained 6 days in 5H medium plus 5% calf serum. Cells were returned to 6H medium for 12 hours, transfected as described above, and maintained in 6H medium plus 5% calf serum for twelve hours. The medium was then changed to fresh 5H medium with 5% calf serum supplemented or not with γ-IFN. […] CAT activity was measured as described above and values were normalized to luciferase activity measured using the Promega (Madison, Wis.) assay system.
To test the effect of MMI, MMI derivatives or tautomeric cyclic thiones on γ-IFN-increased class II expression in FRTL-5 thyroid cells, the following procedure was used. Transient transfections with the −137 bp or −176 bp DRα-CAT chimeras were performed as described and treated with 100 U/ml γ-IFN for the noted times starting 12 hours after transfection. […]
In this experiment, like previous experiments, transient transfections were performed in FRTL-5 cells grown to 80% confluency in 6H medium, maintained 6 days in SH medium, and returned to 6H medium for 12 h before transfection as described. Twelve hours later, the medium was changed to fresh 5H medium, supplemented or not with 100 U/ml γ-IFN and/or 5 mM MMI. CAT activity was measured 48 h thereafter. […] Results are the mean ±SD of 3 separate experiments.

In experiment [2] the test system is HLA-DRα class II promoter. The experiment can be described thus: Luciferase assay, FRTL-5 cells stably transfected with HLA-DRα class II promoter-luciferase chimeras. It is filed as cell-based. Conditions: 40 hours; for inhibition at 10 µM / inhibition at 100 µM / inhibition at 1000 µM: FRTL-5, read-out: % inhibition of IFN-increased p(−137)LUC class II promoter activity; for inhibition at 10 µM / inhibition at 100 µM / inhibition at 1000 µM / % inhibition of IFN-increased p(−137)LUC class II promoter activity / Luciferase activity +γ-IFN: 100 U/ml γ-interferon; for inhibition at 10 µM / inhibition at 100 µM / inhibition at 1000 µM / % inhibition of IFN-increased p(−137)LUC class II promoter activity: 6H medium. From the text: Similarly, the HLA DRα promoter constructs, p(−176)CAT and p(−137)CAT, inserted into the pCAT-Basic vector were released by restriction enzyme digestion, purified from agarose gel using QIAEX (QIAGEN, Chatsworth, Calif.), and used as templates for the construction by PCR of inserts with a 5′ flanking Mlul restriction site. The PCR products were purified by phenol-chloroform extraction, digested with MluI and XbaI, purified from agarose gels using QIAEX (QIAGEN, Chatsworth, Calif.) and ligated in the MluI-NheI site of the PGL-2 basic vector (PROMEGA, Madison, Wis.) using the DNA ligation kit from TAKARA biomedicals (TAKARA SHUZO Co.). JM1I9 bacterial competent cells (PROMEGA, Madison, Wis.) were transformed with the ligation reaction and plated in agar plates for 12 h at 37° C. The colonies were picked and screened with minipreps using QIAprep spin plasmid kit (QIAGEN, Chatsworth, Calif.) and restriction enzyme digestion. The plasmids were then purified by CsCI gradient centrifugation.
The PD1-PGL-2 basic constructs and the Class II-PGL-2 basic constructs were stably transfected in the FRTL-5 cells using a Lipofectamine (GIBCO, Life Technologies, Inc.) method. Near confluent cells in 6H medium were cotransfected with 20 μg of plasmid DNA and 2 μg of a pcDNA3neo or a pPUR selection vector (CLONTECH, Palo Alto, Calif.). After 24-48 hours, 400 μg/ml of G418 (GIBCO, Life Technologies, Inc.) or 10 μM of puromycin (SIGMA) were added to the medium. After 3 weeks the antibiotic-resistant colonies were cloned by limiting dilution and screened to determine their interferon sensitivity. At least 5 cell lines of each construct were isolated, each of whose activity was increased by adding 100 U/ml γ interferon to the medium of the cells. The following data (Tables 10-13) were obtained with one clone of each of the class I or class II-luciferase chimera, but were representative of at least three other clones of each.
Luciferase activity was measured using the Luciferase assay system (PROMEGA, Madison, Wis.). Briefly, treated or untreated cells from a 100 mm culture dish were washed with PBS, scraped and collected in microfuge tubes. The pellet was dissolved in 100 μl 1× reporter lysis buffer and incubated at room temperature for 15 minutes. Cells were frozen in dry ice plus ethanol and thawed in water at room temperature. After vortexing for 10 sec, tubes were centrifuged at 12,000×g for 5 min. Twenty μl of the supernatant were mixed with 100 μl of Luciferase assay reagent and immediately placed in a luminometer. Light was measured for a period of 10 sec after a 2 sec delay.
Treatment of cells, maintained either in the presence of TSH or its absence, with 100 U/ml interferon, increased class I and class II promoter activity (Table 10). In this experiment FRTL-5 cells were grown to 80% confluency in 6H medium with TSH then treated with 100 U/ml γ-interferon, 5 mM MMI or both together. Luciferase activity was measured after 40 hours as described. Several points are notable. First, interferon increases both class I and class II promoter activity in the stable transfectants. Second, MMI inhibits both interferon-increased class I and interferon-increased class II promoter activity.

Where [3] appears, read: FRTL-5, 10 μM, 100 U/ml γ-interferon, 6H medium, read-out: % inhibition of IFN-increased p(−137)CAT class II promoter activity.
The mark [4] stands for this setting: FRTL-5, 100 μM, 100 U/ml γ-interferon, 6H medium, read-out: % inhibition of IFN-increased p(−137)CAT class II promoter activity.
Setting [5] is: FRTL-5, 0.5 mM, 100 U/ml γ-interferon, 6H medium, read-out: % inhibition of IFN-increased p(−137)CAT class II promoter activity.
[6] abbreviates: 10 μM, 100 U/ml γ-interferon, 6H medium.
Setting [7] is: 100 μM, 100 U/ml γ-interferon, 6H medium.
[8] abbreviates: 0.5 mM, 100 U/ml γ-interferon, 6H medium.
Setting [9] is: 5 mM, 100 U/ml γ-interferon, 6H medium.
Where [10] appears, read: FRTL-5, read-out: % inhibition of IFN-increased p(−137)CAT class II promoter activity.
Where [11] appears, read: FRTL-5, 5 mM, 100 U/ml γ-interferon, 6H medium, read-out: % inhibition of IFN-increased p(−137)CAT class II promoter activity.

As usually defined, the inhibition is the share of the control response that was lost under treatment. Turning to `Cn1c(-c2ccccc2)cnc1S` [Compound 10, 5-Phenylmethimazole], the inhibition at 10 µM was found to be 45 ± 17% in experiment [1] (setting [3]) and 43 ± 20% in experiment [2] (10 μM). Also, the inhibition at 100 µM in experiment [1] (setting [4]) is 88 ± 15%; in experiment [2] (100 μM) it was 80 ± 7%. Besides, the inhibition at 500 µM in experiment [1] (setting [5]) came to 95 ± 5%. In addition, the inhibition at 1000 µM in experiment [2] (1 mM) worked out at 92 ± 10%.
Turning to `Cn1ccn(C)c1=S` [Compound 8, N-Methylmethimazole], the “% inhibition of IFN-increased p(−137)CAT class II promoter activity” value was 0% in experiment [1] (setting [6]), 43 ± 9% in experiment [1] (setting [7]), 79 ± 11% in experiment [1] (setting [8]) and 88 ± 10% in experiment [1] (setting [9]). Moreover, the figures for the “% inhibition of IFN-increased p(−137)LUC class II promoter activity” value in experiment [2] (10 μM), in experiment [2] (100 μM) and in experiment [2] (1 mM) were 0%, 43 ± 5% and 84 ± 9%, respectively.
`Sc1nc2ccccc2[nH]1` [Compound 4, 2-Mercaptobenzimidazole]: in experiment [1] (setting [10]), the inhibition at 10 µM came out at 0%, the inhibition at 100 µM came to 0%, the inhibition at 500 µM was 29 ± 12% and the inhibition at 5000 µM stood at 73 ± 14%.
For `CSc1nccn1C` [Compound 7, S-Methylmethimazole], the inhibition at 10 µM in experiment [1] (setting [3]) and in experiment [2] (10 μM) was 0% in each case. Besides, the inhibition at 100 µM in experiment [1] (setting [4]) is 20 ± 15%; in experiment [2] (100 μM) it was 30 ± 7%. Also, in experiment [1] (setting [5]), the inhibition at 500 µM was found to be 75 ± 6%. For the same molecule, the inhibition at 5000 µM in experiment [1] (setting [11]) came out at 84 ± 15%. In addition, the inhibition at 1000 µM in experiment [2] (1 mM) came out at 68 ± 10%.
As for `Cc1ncc([N+](=O)[O-])n1CCO` [Compound 2, 2-Methyl-5-nitro-1-imidazole ethanol], the inhibition at 10 µM in experiment [1] (setting [3]) and in experiment [2] (10 μM) was 0% throughout. Besides, the inhibition at 100 µM in experiment [1] (setting [4]) is 0%; in experiment [2] (100 μM) it was 7 ± 6%. Also, the inhibition at 500 µM in experiment [1] (setting [5]) stood at 55 ± 10%. Also, the inhibition at 5000 µM in experiment [1] (setting [11]) turned out to be 80 ± 4%. In experiment [2] (1 mM), the inhibition at 1000 µM came out at 65 ± 9%.
With `Cn1ccnc1S` [Compound 1, 1-Methylimidazole-2-thiol], the inhibition at 10 µM in experiment [1] (setting [3]) and in experiment [2] (10 μM) was 0% in each case. The inhibition at 100 µM in experiment [1] (setting [4]) and in experiment [2] (100 μM) was 0% throughout. In addition, the inhibition at 500 µM in experiment [1] (setting [5]) stood at 44 ± 6%. In addition, in experiment [1] (setting [11]), the inhibition at 5000 µM stood at 87 ± 9%. Further, the inhibition at 1000 µM in experiment [2] (1 mM) came to 37 ± 10%. Also, the “Luciferase activity + 5 mM MMI” value in experiment [2] (−137 HLA-DRα-LUC) came to 103 ± 6 % Control; in experiment [2] (−167 HLA-DRα-LUC), 99 ± 5 % Control.
Regarding `Cc1cnc(S)n1C` [Compound 9, 5-Methylmethimazole], in experiment [1] (setting [3]), the inhibition at 10 µM is 0%. For the same molecule, the inhibition at 100 µM in experiment [1] (setting [4]) was 0%. Further, in experiment [1] (setting [5]), the inhibition at 500 µM was 14 ± 12%. In addition, the inhibition at 5000 µM in experiment [1] (setting [11]) amounted to 44 ± 18%.
Regarding `Sc1ncc[nH]1` [Compound 3, 2-Mercaptoimidazole], the “% inhibition of IFN-increased p(−137)CAT class II promoter activity” value in experiment [1] (setting [6]), in experiment [1] (setting [7]), in experiment [1] (setting [8]) and in experiment [1] (setting [9]) was “None” in each case.
Consider `O=[N+]([O-])c1ccc2[nH]c(S)nc2c1` [Compound 5, 2-Mercapto-5-nitrobenzimidazole], for which, in experiment [1] (setting [11]), the inhibition at 5000 µM worked out at 39 ± 13%.
Consider `Cc1ccc2[nH]c(S)nc2c1` [Compound 6, 2-Mercapto-5-methylbenzimidazole], for which the inhibition at 5000 µM in experiment [1] (setting [11]) amounted to 44 ± 8%.

B1: γ-IFN: rat recombinant γ-interferon, 100 U/ml, used to increase MHC class I and class II expression in FRTL-5 cells (protein, UniProt P01581 23-156, looked up)
Interferon gamma: QGTLIESLESLKNYFNSSSMDAMEGKSLLLDIWRNWQKDGNTKILESQIISFYLRLFEVLKDNQAISNNISVIESHLITNFFSNSKAKKDAFMSIAKFEVNNPQIQHKAVNELIRVIHQLSPESSLRKRKRSRC
With B1, the “Luciferase activity +γ-IFN” value came out at 695 ± 42 % Control in experiment [2] (−137 HLA-DRα-LUC) and 790 ± 45 % Control in experiment [2] (−167 HLA-DRα-LUC).
